# Measured values: patent US7928140B2, “Benzothiazole PI3 kinase modulators for cancer treatment” (Amgen Inc., priority 2007, dated 2011)
# Like-named read-outs stand apart in the source and are kept apart here.
# Tests used:
# PI3K α = molecular target: T1, PI3K α (Homo sapiens, UniProt P42336); assay: In vitro PI3 kinase enzyme assay (alpha), ATP loss, bioluminescence; assay type: biochemical; settings: read-out: PI3Kα ATP loss IC50;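 also: purified p110α/p85 heterodimer acting on PtdIns(4,5)P2 at room temperature, remaining ATP read by luminescence, inhibition scaled between compound-free wells with and without enzyme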
# T1 construct: Full length p110 subunits of PI3K α, β and δ, N-terminally labeled with polyHis tag; polyHis (N); made in house; host or cells: Sf9 insect cells (baculovirus)
# PI3K β = molecular target: T2, PI3K β (Homo sapiens, UniProt P42338); assay: In vitro PI3 kinase enzyme assay (beta), ATP loss, bioluminescence; assay type: biochemical; settings: read-out: PI3Kβ ATP loss IC50;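 also: purified p110β/p85 heterodimer with PtdIns(4,5)P2 as acceptor, incubated at room temperature, leftover ATP read by luminescence, inhibition scaled to compound-free wells with and without enzyme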
# T2 construct: Full length p110 subunits of PI3K α, β and δ, N-terminally labeled with polyHis tag; polyHis (N); made in house; host or cells: Sf9 insect cells (baculovirus)
# Protocol: Full length p110 subunits of PI3K α, β and δ, N-terminally labeled with polyHis tag, were co-expressed with p85 in baculovirus expression vectors in sf9 insect cells. P110/p85 heterodimers were purified by sequential Ni-NTA, Q-HP, and Superdex-100 chromatography. Purified α, β and δ isozymes were stored at −20° C. in 20 mM Tris, pH 8, 0.2M NaCl, 50% glycerol, 5 mM DTT, 2 mM Na cholate.
# PI3K enzyme assays (alpha, beta, delta and gamma) were performed in 25 mL with the above final concentrations of components in white polypropylene plates (Costar catalogue #3355). Phosphatidyl inositol phosphoacceptor, PtdIns(4,5)P2 (eg. P4508) was obtained from Echelon Biosciences. The ATPase activity of the alpha and gamma isozymes was not greatly stimulated by PtdIns(4,5)P2 under these conditions and was therefore omitted from the assay of these isozymes. Test compounds were dissolved in DMSO and diluted with three-fold serial dilutions. The compound in DMSO (1 μL) was added per test well, and the inhibition relative to reactions containing no compound, with and without enzyme was determined. After assay incubation at RT, the reaction was stopped and residual ATP determined by addition of an equal volume of a commercial ATP bioluminescence kit (Perkin Elmer EasyLite) according to the manufacturer's instructions, and detected using an Analyst GT luminometer.
# [1] = system: phosphorylation of Serine 473 in Akt, HCT 116 human colon carcinoma cells; assay: Cell-based phospho-AKT Ser473 assay (MSD sandwich immunoassay, IGF-1 stimulated); settings: Homo sapiens
# In short: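 HCT116 cells, 16,000/well and plated overnight, were pre-treated with serially diluted compound for 2 h at 37 °C, then stimulated with IGF-1 at 100 ng/ml for 15 min. Lysates were assayed for Akt pSer473 by MSD sandwich electrochemiluminescence, and IC50 was derived from dose-response data.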
# [2] = HCT-116, HCT 116 cells, read-out: HCT 116 pAKT IC50
# [3] = HCT-116, read-out: HCT 116 pAKT IC50
# T2 sequence (P42338 whole entry): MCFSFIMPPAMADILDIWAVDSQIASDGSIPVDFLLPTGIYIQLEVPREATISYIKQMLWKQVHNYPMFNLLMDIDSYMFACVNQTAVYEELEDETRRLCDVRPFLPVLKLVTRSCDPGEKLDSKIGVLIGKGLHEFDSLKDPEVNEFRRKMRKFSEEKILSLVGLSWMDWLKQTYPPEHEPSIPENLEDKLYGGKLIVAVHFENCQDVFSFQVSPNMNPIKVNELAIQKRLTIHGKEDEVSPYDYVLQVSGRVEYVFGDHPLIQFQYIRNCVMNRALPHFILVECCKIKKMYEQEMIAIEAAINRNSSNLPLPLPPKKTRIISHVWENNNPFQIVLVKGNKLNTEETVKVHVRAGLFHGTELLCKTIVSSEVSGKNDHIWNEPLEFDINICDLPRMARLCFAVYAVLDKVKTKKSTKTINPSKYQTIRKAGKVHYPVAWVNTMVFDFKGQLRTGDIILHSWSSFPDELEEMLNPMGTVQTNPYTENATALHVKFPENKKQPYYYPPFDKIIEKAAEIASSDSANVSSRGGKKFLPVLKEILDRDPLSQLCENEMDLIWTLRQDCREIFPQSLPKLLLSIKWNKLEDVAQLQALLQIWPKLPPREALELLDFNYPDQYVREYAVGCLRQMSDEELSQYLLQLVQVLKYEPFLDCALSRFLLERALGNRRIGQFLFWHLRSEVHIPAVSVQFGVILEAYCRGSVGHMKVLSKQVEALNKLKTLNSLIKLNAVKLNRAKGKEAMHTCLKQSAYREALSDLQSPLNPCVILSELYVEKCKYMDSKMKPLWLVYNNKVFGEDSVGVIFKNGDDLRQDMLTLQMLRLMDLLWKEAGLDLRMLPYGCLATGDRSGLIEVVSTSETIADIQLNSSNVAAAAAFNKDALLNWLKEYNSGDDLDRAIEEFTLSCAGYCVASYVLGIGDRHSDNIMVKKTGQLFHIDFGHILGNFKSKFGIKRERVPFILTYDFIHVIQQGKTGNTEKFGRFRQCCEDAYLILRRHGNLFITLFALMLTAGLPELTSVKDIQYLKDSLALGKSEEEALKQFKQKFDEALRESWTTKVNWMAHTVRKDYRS
# T2 sequence (P27986 whole entry partner): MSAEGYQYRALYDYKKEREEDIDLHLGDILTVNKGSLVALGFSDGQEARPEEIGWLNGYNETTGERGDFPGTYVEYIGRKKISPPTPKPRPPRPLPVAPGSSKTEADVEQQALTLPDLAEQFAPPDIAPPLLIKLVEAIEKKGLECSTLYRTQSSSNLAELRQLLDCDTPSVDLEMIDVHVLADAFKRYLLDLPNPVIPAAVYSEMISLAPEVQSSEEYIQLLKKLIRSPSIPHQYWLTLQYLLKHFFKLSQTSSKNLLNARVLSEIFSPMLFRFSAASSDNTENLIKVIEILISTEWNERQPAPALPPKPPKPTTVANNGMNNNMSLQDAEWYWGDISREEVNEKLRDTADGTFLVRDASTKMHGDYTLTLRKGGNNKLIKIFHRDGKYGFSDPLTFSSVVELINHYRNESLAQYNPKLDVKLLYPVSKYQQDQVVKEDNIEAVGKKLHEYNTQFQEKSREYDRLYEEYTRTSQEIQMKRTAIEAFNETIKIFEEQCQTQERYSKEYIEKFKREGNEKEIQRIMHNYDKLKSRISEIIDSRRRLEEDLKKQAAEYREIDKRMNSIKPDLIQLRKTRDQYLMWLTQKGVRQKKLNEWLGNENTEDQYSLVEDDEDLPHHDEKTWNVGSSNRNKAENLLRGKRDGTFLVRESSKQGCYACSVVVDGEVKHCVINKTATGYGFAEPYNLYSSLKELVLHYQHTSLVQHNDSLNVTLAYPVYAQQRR
# T1 sequence (P42336 whole entry, species assumed): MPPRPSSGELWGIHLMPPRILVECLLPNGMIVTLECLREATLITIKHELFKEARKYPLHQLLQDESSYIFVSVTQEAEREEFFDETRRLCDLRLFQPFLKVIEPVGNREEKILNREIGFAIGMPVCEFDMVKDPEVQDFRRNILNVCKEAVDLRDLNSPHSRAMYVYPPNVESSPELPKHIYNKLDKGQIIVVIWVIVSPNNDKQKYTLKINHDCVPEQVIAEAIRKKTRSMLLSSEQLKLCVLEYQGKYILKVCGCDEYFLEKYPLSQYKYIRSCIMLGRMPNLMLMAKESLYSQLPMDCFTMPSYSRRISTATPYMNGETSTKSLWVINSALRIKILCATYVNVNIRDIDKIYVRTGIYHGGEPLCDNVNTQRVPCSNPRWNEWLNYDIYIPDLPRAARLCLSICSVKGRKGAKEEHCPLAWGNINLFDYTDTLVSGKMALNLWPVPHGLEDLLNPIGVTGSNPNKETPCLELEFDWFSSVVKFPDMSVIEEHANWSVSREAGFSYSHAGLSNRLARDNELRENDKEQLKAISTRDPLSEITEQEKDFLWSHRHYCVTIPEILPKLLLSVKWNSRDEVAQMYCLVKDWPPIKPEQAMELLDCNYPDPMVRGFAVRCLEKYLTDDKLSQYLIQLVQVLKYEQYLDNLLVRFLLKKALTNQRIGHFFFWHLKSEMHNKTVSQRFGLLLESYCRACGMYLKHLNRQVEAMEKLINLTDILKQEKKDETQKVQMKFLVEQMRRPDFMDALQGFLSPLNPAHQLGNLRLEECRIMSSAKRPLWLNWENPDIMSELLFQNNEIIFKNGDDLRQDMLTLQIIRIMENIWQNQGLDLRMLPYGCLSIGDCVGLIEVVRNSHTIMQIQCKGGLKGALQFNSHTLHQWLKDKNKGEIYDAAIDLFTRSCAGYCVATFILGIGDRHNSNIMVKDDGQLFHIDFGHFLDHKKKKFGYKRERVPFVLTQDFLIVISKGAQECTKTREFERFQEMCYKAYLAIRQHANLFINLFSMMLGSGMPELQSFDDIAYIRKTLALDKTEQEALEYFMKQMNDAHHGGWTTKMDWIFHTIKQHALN
# T1 sequence (P27986 whole entry partner, species assumed): as the sequence (P27986 whole entry partner) above
SMILES,IC50 (PI3K α),IC50 (PI3K β),"IC50 [1, 2]","IC50 [1, 3]"
"CC(=O)Nc1nc2ccc(-c3cncc(N(C)S(=O)(=O)c4ccc(F)c(F)c4)c3)cc2s1 [Example 222, N-(6-(5-(3,4-difluoro-N-methylphenylsulfonamido)pyridin-3-yl)benzo[d]thiazol-2-yl)acetamide]",377 nM,2890 nM,2180 nM,–
"CC(=O)Nc1nc2ccc(-c3ccnc(OCc4cccc(C)c4)n3)cc2s1 [Example 107, N-(6-(2-((3-methylbenzyl)oxy)-4-pyrimidinyl)-1,3-benzothiazol-2-yl)acetamide]",181 nM,836 nM,1210 nM,–
"CC(=O)Nc1nc2ccc(-c3cnc(Cl)c(NS(=O)(=O)c4ccc(C(C)(C)O)cc4)c3)cc2s1 [Example 161, N-(6-(6-chloro-5-(4-(2-hydroxypropan-2-yl)phenylsulfonamido)pyridin-3-yl)benzo[d]thiazol-2-yl)acetamide]",13.7 nM,44.6 nM,4.1 nM,–
"CC(=O)Nc1nc2ccc(-c3ccnc(OCC(C)(C)C)n3)cc2s1 [Example 42, N-(6-(2-(2,2-dimethylpropoxy)-4-pyrimidinyl)-1,3-benzothiazol-2-yl)acetamide]",501 nM,43000 nM,6180 nM,–
"COc1ncc(-c2ccc3nc(NC(C)=O)sc3c2)cc1NC(C)C [Example 145, N-(6-(6-methoxy-5-((1-methylethyl)amino)-3-pyridinyl)-1,3-benzothiazol-2-yl)acetamide]",114 nM,424 nM,851 nM,–
"CC(=O)Nc1nc2ccc(-c3cncc(Cl)n3)cc2s1 [Example 150, N-(6-(6-chloro-2-pyrazinyl)-1,3-benzothiazol-2-yl)acetamide]",186 nM,902 nM,503 nM,–
"CC(=O)Nc1nc2ccc(-c3cncc(NS(=O)(=O)c4ccc(C)cc4)c3)cc2s1 [Example 194, N-(6-(5-(4-methylphenylsulfonamido)pyridin-3-yl)benzo[d]thiazol-2-yl)acetamide]",9.8 nM,25.5 nM,27.6 nM,–
"CC(=O)Nc1nc2ccc(-c3cnc(Cl)c(NS(=O)(=O)c4ccc(Cl)s4)c3)cc2s1 [Example 193, N-(6-(6-chloro-5-(2-chlorothiophene-5-sulfonamido)pyridin-3-yl)benzo[d]thiazol-2-yl)acetamide]",6.8 nM,9.6 nM,16.8 nM,–
"CC(=O)Nc1nc2ccc(-c3cnc(C(F)(F)F)c(O)c3)cc2s1 [Example 302, N-(6-(5-hydroxy-6-(trifluoromethyl)pyridin-3-yl)benzo[d]thiazol-2-yl)acetamide]",8.5 nM,159 nM,157 nM,–
"CC(=O)Nc1nc2ccc(-c3ccnc(N(C)S(=O)(=O)c4ccccc4)n3)cc2s1 [Example 91, N-(6-(2-(methyl(phenylsulfonyl)amino)-4-pyrimidinyl)-1,3-benzothiazol-2-yl)acetamide]",181 nM,237 nM,310 nM,–
"CC(=O)Nc1nc2ccc(-c3ccnc(OCCCc4ccncc4)n3)cc2s1 [Example 44, N-(6-(2-(3-(4-pyridinyl)propoxy)-4-pyrimidinyl)-1,3-benzothiazol-2-yl)acetamide]",97.9 nM,2730 nM,577 nM,–
"CC(=O)Nc1nc2ccc(-c3cnc(Cl)c(NS(=O)(=O)c4ccsc4)c3)cc2s1 [Example 187, N-(6-(6-chloro-5-(thiophene-4-sulfonamido)pyridin-3-yl)benzo[d]thiazol-2-yl)acetamide]",21.1 nM,42.1 nM,37.4 nM,–
"CC(=O)Nc1nc2ccc(-c3ccnc(N(C)S(=O)(=O)c4cccs4)n3)cc2s1 [Example 206, N-(6-(2-(N-methylthiophene-2-sulfonamido)pyrimidin-4-yl)benzo[d]thiazol-2-yl)acetamide]",177 nM,194 nM,381 nM,–
"COc1ccc(Sc2cncc(-c3ccc4nc(NC(C)=O)sc4c3)n2)cc1 [Example 133, N-(6-(6-((4-methoxyphenyl)sulfanyl)-2-pyrazinyl)-1,3-benzothiazol-2-yl)acetamide]",41.5 nM,75.4 nM,1230 nM,–
"CC(=O)Nc1nc2ccc(-c3ccnc(OCCc4ccccc4)n3)cc2s1 [Example 7, N-(6-(2-(2-phenylethoxy)-4-pyrimidinyl)-1,3-benzothiazol-2-yl)acetamide]",226 nM,2610 nM,–,> 25000 nM
"CNc1nc2ccc(-c3cnc(Cl)c(NS(=O)(=O)c4c(C)cccc4Cl)c3)cc2s1 [Example 318, 2-chloro-N-(2-chloro-5-(2-(methylamino)-1,3-benzothiazol-6-yl)-3-pyridinyl)-6-methylbenzenesulfonamide]",11.2 nM,42.3 nM,329 nM,–

SMILES,IC50 (PI3K α),IC50 (PI3K β),"IC50 [1, 2]","IC50 [1, 3]"
"CCc1ccc(S(=O)(=O)Nc2nccc(-c3ccc4nc(NC(C)=O)sc4c3)n2)cc1 [Example 84, N-(6-(2-(((4-ethylphenyl)sulfonyl)amino)-4-pyrimidinyl)-1,3-benzothiazol-2-yl)acetamide]",21.8 nM,79.3 nM,174 nM,–
"Nc1nc2ccc(-c3cnc(Cl)c(NS(=O)(=O)c4cccc(OC(F)F)c4)c3)cc2s1 [Example 307, N-(5-(2-amino-1,3-benzothiazol-6-yl)-2-chloro-3-pyridinyl)-3-(difluoromethoxy)benzenesulfonamide]",6.7 nM,17.3 nM,115 nM,–
"CNc1ncc(-c2ccc3nc(NC(C)=O)sc3c2)cc1NC(C)C [Example 147, N-(6-(5-(isopropylamino)-6-(methylamino)pyridin-3-yl)benzo[d]thiazol-2-yl)acetamide]",149 nM,5680 nM,440 nM,–
"CC(C)(O)c1ccc(S(=O)(=O)Nc2cc(-c3ccc4nc(N)sc4c3)cnc2Cl)cc1 [Example 324, N-(5-(2-amino-1,3-benzothiazol-6-yl)-2-chloro-3-pyridinyl)-4-(1-hydroxy-1-methylethyl)benzenesulfonamide]",10.9 nM,17.1 nM,151 nM,–
"CC(C)Nc1cc(-c2ccc3nc(NC(=O)Cc4ccccn4)sc3c2)cnc1Cl [Example 141, N-(6-(6-chloro-5-(isopropylamino)pyridin-3-yl)benzo[d]thiazol-2-yl)-2-(pyridin-2-yl)acetamide]",95.4 nM,846 nM,850 nM,–
"CNc1nc2ccc(-c3cnc(Cl)c(NS(=O)(=O)c4ccc(F)cc4)c3)cc2s1 [Example 317, N-(2-chloro-5-(2-(methylamino)-1,3-benzothiazol-6-yl)-3-pyridinyl)-4-fluorobenzenesulfonamide]",8.6 nM,30.2 nM,246 nM,–
"CC(C)Nc1cc(-c2ccc3nc(NC(=O)C[C@@H]4CCCO4)sc3c2)cnc1Cl [Example 151, N-(6-(6-chloro-5-((1-methylethyl)amino)-3-pyridinyl)-1,3-benzothiazol-2-yl)-2-((2S)-tetrahydro-2-furanyl)acetamide]",230 nM,1620 nM,> 5000 nM,–
"CC(=O)Nc1nc2ccc(-c3cncc(NS(=O)(=O)c4ccc(Cl)c(Cl)c4)c3)cc2s1 [Example 200, N-(6-(5-(3,4-dichlorophenylsulfonamido)pyridin-3-yl)benzo[d]thiazol-2-yl)acetamide]",5.6 nM,9.8 nM,35.7 nM,–
"CC(=O)Nc1nc2ccc(-c3cccc(NS(=O)(=O)c4ccc(C)cc4)c3)nc2s1 [Example 136, N-(5-(3-(4-methylphenylsulfonamido)phenyl)thiazolo[5,4-b]pyridin-2-yl)acetamide]",58.6 nM,199 nM,172 nM,–
"CC(=O)Nc1nc2ccc(-c3cnc(C)c(NS(=O)(=O)c4ccc(F)cc4)c3)cc2s1 [Example 111, N-(6-(5-(((4-fluorophenyl)sulfonyl)amino)-6-methyl-3-pyridinyl)-1,3-benzothiazol-2-yl)acetamide]",4.1 nM,13.1 nM,25.5 nM,–
"COc1ncc(-c2ccc3nc(NC(C)=O)sc3c2)cc1N(C)C [Example 124, N-(6-(5-(dimethylamino)-6-methoxy-3-pyridinyl)-1,3-benzothiazol-2-yl)acetamide]",24.7 nM,90.8 nM,66.6 nM,–
"CC(=O)Nc1nc2ccc(-c3cccc(NS(=O)(=O)c4ccccc4F)n3)cc2s1 [Example 73, N-(6-(6-(2-Fluorophenylsulfonamido)pyridin-2-yl)benzo[d]thiazol-2-yl)acetamide]",60.6 nM,149 nM,320 nM,–
"CC(=O)Nc1nc2ccc(-c3cccc(N(C)S(=O)(=O)c4ccccc4)n3)cc2s1 [Example 75, N-(6-(6-(methyl(phenylsulfonyl)amino)-2-pyridinyl)-1,3-benzothiazol-2-yl)acetamide]",82.5 nM,338 nM,221 nM,–
"CC(=O)Nc1nc2c(F)cc(-c3cncc(NS(=O)(=O)c4ccc(C(F)(F)F)cc4)c3)cc2s1 [Example 117, N-(4-fluoro-6-(5-(4-(trifluoromethyl)phenylsulfonamido)pyridin-3-yl)benzo[d]thiazol-2-yl)acetamide]",7.7 nM,55.8 nM,–,301 nM
"CC(=O)Nc1nc2ccc(-c3cnc(C)c(NS(=O)(=O)c4ccc(C(C)(C)C)cc4)c3)cc2s1 [Example 114, N-(6-(5-(((4-tert-butylphenyl)sulfonyl)amino)-6-methyl-3-pyridinyl)-1,3-benzothiazol-2-yl)acetamide]",7 nM,8.9 nM,14.4 nM,–
